Laboratory results reported in patent US20190177440A1, “COMPOUND OR SALT THEREOF, ANTI-INFLAMMATORY AGENT, ANTI-CANCER AGENT AGAINST LUNG CANCER, METHOD OF PRODUCING COMPOUND OR SALTS THEREOF, METHOD OF TREATING INFLAMMATORY DISEASES AND METHOD OF TREATING LUNG CANCER” (TFK CO., LTD., priority 2016, published 2019).

Key:
[1] = system: NF-κB; test: Nuclear NF-κB level in RAW264.7 mouse macrophage cells (Example 4); type: cell-based; details: final 1 and 100 ng/mL, 24 hours pre-treatment, no LPSp, FIG. 4
Description: In the same manner as “(1) Preparation of test solution” in Example 3, a solution having a concentration of the purified product of 20,000 ng/mL was prepared, and the solution was serially diluted with a culture solution having the following composition, thereby obtaining two test solutions having 100 ng/mL and 10,000 ng/mL. Since the two test solutions are diluted 100-fold when added to the cells, the final concentrations of the purified product are 1 ng/mL and 100 ng/mL, respectively.
The culture medium was added to mouse macrophage cells (RAW264.7, ATCC) to prepare solutions at concentrations of 1.067×10^6 cells/mL. The solutions were seeded in 6 well plates in 3 mL portions, i.e., 3.2×10^6 cells/3 mL/well. After seeding, the test solution was incubated at 37° C. in a 5% CO2 for 2 hours, and 30 μL of the test solution was added to each well. After adding the test solution, the test solution was incubated at 37° C. in a 5% CO2 for 24 hours. The culture supernatant of each of the wells was then collected in a 15 mL tube. Then, 1 mL of the fresh culture solution was added to each of the wells, and after spreading over the entire well, the operation of collecting the culture solution into the 15 mL tube was repeated twice. Thereafter, the culture solution collected in the 15 mL tube was centrifuged at 1,000 rpm for 3 minutes, the supernatant was removed, and 3 mL of a new culture solution at 37° C. was added to suspend the culture solution, and centrifuged again under the same conditions. After centrifugation, the supernatant was removed, and 2 mL of the above-mentioned culture solution at 37° C. was added to the precipitate and suspended. Then, 2 mL of the suspension was added to each well to which 1 mL of a new culture medium had been added in advance. Thereafter, 30 μL of a new culture medium was added (hereinafter, this step is referred to as a “culture medium addition step”). After incubation at 37° C. in a 5% CO2 for 30 minutes, the culture supernatants of the wells were collected in 15-mL tubes, centrifuged at 1,000 rpm for 3 minutes, and the supernatants were removed by an aspirator. In addition, to the wells of the 6-well plate from which the culture supernatant was removed, 3 mL of cooled PBS (Phosphate buffered saline)/Phosphatase Inhibitors solution was added, the cells were removed by pipetting, and the cell suspension was added to the 15-mL tubes. The 15 mL tube was centrifuged at 1,000 rpm for 3 minutes, the supernatant was removed by an aspirator, and 0.5 mL of the cooled PB S/Phosphatase Inhibitors solution was added to the 15 mL tube and suspended to prepare a cell suspension. […]
The amount of NF-κB in the nucleoprotein was confirmed by measuring the absorbance using the Trans AM NF KB p65 kit (manufactured by Active Motif).

[2] = system: PPARγ gene; test: PPARγ gene expression in THP-1 cells by CAGE method (Example 8-2); type: cell-based, human; details: 3 hours
Description: The same culture medium as in Example 8-1(2) was added to the THP-1 cells to prepare solutions in which the concentrations of the cells were 5×10^5 cells/mL. The expression level of the PPARγ gene in this solution was measured by the CAGE method and found to be 3.97 TPM (Tags Per Million). After the measurement, the cell solution was divided into the following four groups. That is, there are four groups: a group in which a solution of the purified product is added to the cell solution so as to have a final concentration of 1 μg/mL (Example 8-2A), a group in which a solution of the purified product is added to the cell solution so as to have a final concentration of 10 μg/mL (Example 8-2B), a group in which nothing is added to the cell solution (Comparative Example 8-2A), and a group in which a LPSp solution is added to the cell solution so as to have a final concentration of 100 ng/mL (Comparative Example 8-2B). After culturing the four groups for 3 hours, the expression level of the PPARγ gene was measured by the CAGE method. FIG. 27 is a graph showing the expression levels of the PPARγ genes. In FIG. 27, the horizontal axis represents the incubation time, and the vertical axis represents the expression amount (TPM) of the PPARγ gene. […] In contrast, in Comparative Example 8-2A, the expression level of the PPARγ gene decreased slightly from 3.97 TPM to 3.89 TPM during 3 hours, and in Comparative Example 8-2B, the expression level of the PPARγ gene increased from 3.97 TPM to 4.31 TPM during 3 hours, but the degree of the increase was not significant.

[3] = biological target: T1, human TLR4 (Homo sapiens, UniProt O00206+Q9Y6Y9); test: IL-8 production in Human Embryonic Kidney cells transfected with human TLR4 gene (Example 3); type: cell-based; details: HEK cells with human TLR4 gene; final 0.1-10,000 ng/mL; 24 hours; ELISA; FIG. 3
T1 construct: host or cells: Human Embryonic Kidney cells
Description: The purified product obtained in Example 1 (the mixture of the compound represented by Formula (A1), the compound represented by Formula (B1), the compound represented by Formula (A2), and the compound represented by Formula (B2)) was dissolved in water for injection to a concentration of 2 mg/mL and stored at 4° C., and the solution was heated at 37° C. for 5 minutes and sonicated at 37° C. for 1 minute. 10 μL of the sonicated solution was added to 990 μL of the culture solution having the following composition to thoroughly mix, and a solution having a concentration of 20,000 ng/mL was prepared, which was serially diluted using the culture solution to obtain six test solutions having concentrations of 2,000 ng/mL, 200 ng/mL, 20 ng/mL, 2 ng/mL, and 0.2 ng/mL. Since the six test solutions are diluted twice when added to the cells, the final concentrations of the purified products are 10,000 ng/mL, 1,000 ng/mL, 100 ng/mL, 10 ng/mL, 1 ng/mL, and 0.1 ng/mL, respectively.
The culture medium was added to Human Embryonic Kidney cells (manufactured by InvivoGen) into which human TLR4 gene had been transfected, and solution were prepared in which the concentration of the cell was 4×10^5 cells/mL. The solution was seeded in 96-well flat-bottomed plates in 100 μL portions, i.e., 4×10^4 cells/100 μL/well. After seeding, the culture was cultured at 37° C. in a 5% CO2 for 24 hours, then the culture supernatant was removed, and 100 μL of the above-described culture medium was added to each well. Next, 100 μL of the test solution was added to each well. After adding the test solution, the culture was incubated at 37° C. in a 5% CO2 for 24 hours.
Culture supernatants from the wells were collected and the concentrations of Interleukin-8 (IL-8) were measured using Human IL-8 ELISA MAX (registered trademark) Standard (Biolegend).

T1 sequence (O00206 24-839): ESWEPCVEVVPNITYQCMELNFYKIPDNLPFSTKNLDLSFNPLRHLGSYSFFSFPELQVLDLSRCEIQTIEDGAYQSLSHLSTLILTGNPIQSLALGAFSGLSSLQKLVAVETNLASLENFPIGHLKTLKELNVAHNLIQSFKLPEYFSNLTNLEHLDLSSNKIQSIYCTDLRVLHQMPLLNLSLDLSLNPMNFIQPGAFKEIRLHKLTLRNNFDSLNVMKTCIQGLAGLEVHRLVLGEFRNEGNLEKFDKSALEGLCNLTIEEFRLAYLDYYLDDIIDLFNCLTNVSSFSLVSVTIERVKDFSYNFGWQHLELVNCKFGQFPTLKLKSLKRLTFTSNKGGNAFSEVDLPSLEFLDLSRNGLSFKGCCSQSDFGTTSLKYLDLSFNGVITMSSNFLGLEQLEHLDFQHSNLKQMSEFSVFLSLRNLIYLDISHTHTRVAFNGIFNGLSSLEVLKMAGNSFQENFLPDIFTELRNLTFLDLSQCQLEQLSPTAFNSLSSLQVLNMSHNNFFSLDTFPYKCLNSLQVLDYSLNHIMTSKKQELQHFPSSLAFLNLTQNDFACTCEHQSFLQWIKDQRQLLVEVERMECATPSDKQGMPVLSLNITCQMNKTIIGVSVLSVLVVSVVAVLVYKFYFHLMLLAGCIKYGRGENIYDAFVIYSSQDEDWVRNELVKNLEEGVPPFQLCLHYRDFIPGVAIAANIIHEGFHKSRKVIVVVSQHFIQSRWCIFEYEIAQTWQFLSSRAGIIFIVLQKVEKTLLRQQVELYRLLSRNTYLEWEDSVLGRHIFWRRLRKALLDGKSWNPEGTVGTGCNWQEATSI
T1 sequence (Q9Y6Y9 17-160 limits assumed): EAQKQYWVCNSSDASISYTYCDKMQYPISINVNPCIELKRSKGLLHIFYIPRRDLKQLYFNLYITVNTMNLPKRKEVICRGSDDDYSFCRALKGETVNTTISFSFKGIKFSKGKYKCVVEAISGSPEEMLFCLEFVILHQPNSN

CCCCCC/C=C/CCCCCC(=O)OC(CCCCCCCCCCC)CC(=O)NC1C(OCC2OC(OP(=O)(O)O)C(NC(=O)CC(=O)CCCCCCCCCCC)C(OC(=O)CC(O)CCCCCCC)C2O)OC(COC2(C(=O)O)CC(OC3(C(=O)O)CC(OC4OC(C(=O)O)C(OC5OC(CO)C(O)C(O)C5O)C(O)C4O)C(O)C(C(O)CO)O3)C(OC3OC(COP(=O)(O)O)C(OC4OC(CO)C(O)C(O)C4O)C(O)C3O)C(C(O)CO)O2)C(OP(=O)(O)O)C1OC(=O)CC(O)CCCCCCC (stereo not drawn) [Formula (A1)]
Equivalent results were obtained: amount of NF-κB in the nucleoprotein (absorbance) [1] | effect on expression of the PPARγ gene (in words) [2] | concentration of IL-8 in culture supernatant [3]

CCCCCC/C=C/CCCCCC(=O)OC(CCCCCCCCCCC)CC(=O)NC1C(OCC2OC(OP(=O)(O)O)C(NC(=O)CC(=O)CCCCCCCCCCC)C(OC(=O)CC(O)CCCCCCC)C2O)OC(COC2(C(=O)O)CC(OC3(C(=O)O)CC(OC4OC(C(=O)O)C(OC5OC(CO)C(O)C(O)C5O)C(O)C4O)C(O)C(C(O)CO)O3)C(OC3OC(CO)C(O)C(O)C3O)C(C(O)CO)O2)C(OP(=O)(O)O)C1OC(=O)CC(O)CCCCCCC (stereo not drawn) [Formula (A2)]
Equivalent results were obtained: amount of NF-κB in the nucleoprotein (absorbance) [1] | effect on expression of the PPARγ gene (in words) [2] | concentration of IL-8 in culture supernatant [3]

CCCCCC/C=C/CCCCCC(=O)OC(CCCCCCCCCCC)CC(=O)NC1C(OCC2OC(OP(=O)(O)O)C(NC(=O)CC(=O)CCCCCCCCCCC)C(OC(=O)CC(O)CCCCCCC)C2O)OC(COC2(C(=O)O)CC(OC3(C(=O)O)CC(O)C(OC4OC(C(=O)O)C(OC5OC(CO)C(O)C(O)C5O)C(O)C4O)C(C(O)CO)O3)C(OC3OC(COP(=O)(O)O)C(OC4OC(CO)C(O)C(O)C4O)C(O)C3O)C(C(O)CO)O2)C(OP(=O)(O)O)C1OC(=O)CC(O)CCCCCCC (stereo not drawn) [Formula (B1)]
Equivalent results were obtained: amount of NF-κB in the nucleoprotein (absorbance) [1] | effect on expression of the PPARγ gene (in words) [2] | concentration of IL-8 in culture supernatant [3]

CCCCCC/C=C/CCCCCC(=O)OC(CCCCCCCCCCC)CC(=O)NC1C(OCC2OC(OP(=O)(O)O)C(NC(=O)CC(=O)CCCCCCCCCCC)C(OC(=O)CC(O)CCCCCCC)C2O)OC(COC2(C(=O)O)CC(OC3(C(=O)O)CC(O)C(OC4OC(C(=O)O)C(OC5OC(CO)C(O)C(O)C5O)C(O)C4O)C(C(O)CO)O3)C(OC3OC(CO)C(O)C(O)C3O)C(C(O)CO)O2)C(OP(=O)(O)O)C1OC(=O)CC(O)CCCCCCC (stereo not drawn) [Formula (B2)]
Equivalent results were obtained: amount of NF-κB in the nucleoprotein (absorbance) [1] | effect on expression of the PPARγ gene (in words) [2] | concentration of IL-8 in culture supernatant [3]
